Results as given in article PMC11721672, “Design, Structure–Activity Relationships, and Computational Modeling Studies of a Series of α-Helix Biased, Ultra-Short Glucagon-like Peptide-1 Receptor Agonists” (Molecules, 2024).
Where two headings read alike, the source gives them in different places. Square brackets hold non-standard residues; d marks the D form. Peptide text beside a SMILES is read from it. Bip = N[C@@H](Cc1ccc(-c2ccccc2)cc1)C(=O)O; αMePhe(2-F) = C[C@](N)(Cc1ccccc1F)C(=O)O; αMeF = C[C@](N)(Cc1ccccc1)C(=O)O; Aib = CC(C)(N)C(=O)O

Biological target: T1, hGLP1 receptor (Homo sapiens, UniProt P43220)
T1 construct: expressed in transfected cells; host or cells: HEK (human embryonic kidney) cells co-expressing hGLP1 receptor and CRE-Luciferase
T1 sequence (P43220 24-463): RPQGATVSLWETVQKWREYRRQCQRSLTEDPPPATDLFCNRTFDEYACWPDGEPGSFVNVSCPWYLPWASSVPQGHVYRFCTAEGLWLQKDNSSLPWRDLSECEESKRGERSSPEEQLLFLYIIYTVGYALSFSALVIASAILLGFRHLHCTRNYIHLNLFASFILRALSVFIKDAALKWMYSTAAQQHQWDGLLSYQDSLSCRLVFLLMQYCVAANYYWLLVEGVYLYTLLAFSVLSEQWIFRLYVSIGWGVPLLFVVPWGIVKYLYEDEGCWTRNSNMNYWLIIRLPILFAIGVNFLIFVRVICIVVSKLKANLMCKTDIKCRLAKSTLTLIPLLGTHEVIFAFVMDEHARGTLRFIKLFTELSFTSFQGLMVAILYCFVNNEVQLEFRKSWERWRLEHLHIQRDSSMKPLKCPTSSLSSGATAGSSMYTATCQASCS
Test: GLP-1 receptor agonism assay (HTRF cAMP, HEK cells co-expressing hGLP1 receptor and CRE-Luciferase)
Format: cell-based
Settings: for decreased potency by Aib substitution: Aib-scanning, versus parent analog RXL-101; for Emax: HEK293, Table 6 potency profile; for dpEC50 (contribution of Cα-methylation): dpEC50 = pEC50 (Aib) − pEC50 (Ala) − 0.97, Aib peptide versus the Ala peptide of the same line
Method: Human embryonic kidney cells (HEK) co-expressing the hGLP1 receptor and CRE-Luciferase construct were used to determine agonist potency in this assay. The cells were thawed briefly at 37 °C, transferred to a sterile tube, and re-suspended in complete media at 37 °C. Cells were centrifuged at 1000 rpm for 5 min and collected; the cells were then re-suspended in an assay buffer consisting of Dulbecco’s phosphate-buffered saline (DPBS, GIBCO) with 500 μM of the phosphodiesterase inhibitor 3-isobutyl-1-methylxanthine (IBMX). The assay medium had 0% serum albumin, as specified in Table 1, Table 2, Table 3 and Table 4. The optimal cell density was determined to be 1000 cells/well. Cells were added to wells in 384-well plates containing appropriate pre-prepared dilutions of compounds (test peptides or reference compound exendin-4), sealed, and incubated with CO2 for 30 min. Test peptide solutions were diluted from 10 mM stock solutions to be used in two separate runs (performed in triplicate) from a maximal concentration of 1.0 μM, with 11 concentrations tested for each peptide using serial 1:3 dilution from this maximal concentration. […] The agonist assay was a homogeneous time-resolved fluorescence (HTRF) assay (Cisbio). Following incubation of the cells for 30 min with test or reference peptides, 5 μL of the cAMP acceptor cAMP-d2, prepared previously as a working solution from frozen stock (1:20 dilution), was added to each well of the assay plate along with 5 μL of anti-cAMP antibody-cryptate working solution (diluted 1:20 from frozen stock). The wells were incubated for 1 h at room temperature, and fluorescence was then read at 665 and 615 nm with an Envision reader with a TRF laser. Data were saved and analyzed using Prism software (GraphPad). Concentration–response analysis was performed using 4-parameter logistic fits of the resulting data, and EC50 values were obtained for each test and reference compound.

[1] = Table 1, Phe6 modifications, 0% HSA, average of two independent experiments in triplicate (RXL-3039 tested once), read-out: cAMP EC50
[2] = Table 3, Aib-scanning, 0% HSA, >1000 nM = out of range, read-out: cAMP EC50
[3] = Table 2, Ala-scanning, 0% HSA, >1000 nM = out of range, read-out: cAMP EC50

Compound | Emax | EC50 [1] | also measured
C[C@@H](O)[C@H](NC(=O)CNC(=O)[C@H](CCC(=O)O)NC(=O)C(C)(C)NC(=O)[C@@H](N)Cc1c[nH]cn1)C(=O)N[C@@](C)(Cc1ccccc1F)C(=O)N[C@H](C(=O)NC(C)(C)C(=O)N[C@@H](CC(=O)O)C(=O)N[C@@H](Cc1ccc(-c2ccccc2)cc1)C(=O)N[C@@H](Cc1ccc(-c2ccccc2)cc1)C(N)=O)[C@@H](C)O [RXL-3035, His-Aib-Glu-Gly-Thr-α-Me-Phe(2-F)-Thr-Aib-Asp-Bip-Bip-NH2] (H-H[Aib]EGT[αMePhe(2-F)]T[Aib]D[Bip][Bip]-NH2) | 79.1% | – | decreased potency by Aib substitution: ≥ 100 fold; dpEC50 (contribution of Cα-methylation) (0% HSA): −2.80
C[C@@H](O)[C@H](NC(=O)CNC(=O)[C@H](CCC(=O)O)NC(=O)C(C)(C)NC(=O)[C@@H](N)Cc1c[nH]cn1)C(=O)N[C@@H](Cc1c[nH]c2ccccc12)C(=O)N[C@H](C(=O)N[C@@H](CO)C(=O)N[C@@H](CC(=O)O)C(=O)N[C@@H](Cc1ccc(-c2ccccc2)cc1)C(=O)N[C@@H](Cc1ccc(-c2ccccc2)cc1)C(N)=O)[C@@H](C)O [RXL-3023, His-Aib-Glu-Gly-Thr-Trp-Thr-Ser-Asp-Bip-Bip-NH2] (H-H[Aib]EGTWTSD[Bip][Bip]-NH2) | 106% | 13.8 nM | –
C[C@@H](O)[C@H](NC(=O)CNC(=O)[C@H](CCC(=O)O)NC(=O)C(C)(C)NC(=O)[C@@H](N)Cc1c[nH]cn1)C(=O)N[C@@H](Cc1ccccc1C(F)(F)F)C(=O)N[C@H](C(=O)N[C@@H](CO)C(=O)N[C@@H](CC(=O)O)C(=O)N[C@@H](Cc1ccc(-c2ccccc2)cc1)C(=O)N[C@@H](Cc1ccc(-c2ccccc2)cc1)C(N)=O)[C@@H](C)O [RXL-3012, His-Aib-Glu-Gly-Thr-Phe(2-CF3)-Thr-Ser-Asp-Bip-Bip-NH2] | 99.3% | 13.9 nM | –
C[C@@H](O)[C@H](NC(=O)CNC(=O)[C@H](CCC(=O)O)NC(=O)C(C)(C)NC(=O)[C@@H](N)Cc1c[nH]cn1)C(=O)N[C@@H](Cc1ccc(O)cc1)C(=O)N[C@H](C(=O)N[C@@H](CO)C(=O)N[C@@H](CC(=O)O)C(=O)N[C@@H](Cc1ccc(-c2ccccc2)cc1)C(=O)N[C@@H](Cc1ccc(-c2ccccc2)cc1)C(N)=O)[C@@H](C)O [RXL-3021, His-Aib-Glu-Gly-Thr-Tyr-Thr-Ser-Asp-Bip-Bip-NH2] (H-H[Aib]EGTYTSD[Bip][Bip]-NH2) | 100% | 3 nM | –
C[C@@H](O)[C@H](NC(=O)CNC(=O)[C@H](CCC(=O)O)NC(=O)C(C)(C)NC(=O)[C@@H](N)Cc1c[nH]cn1)C(=O)N[C@@H](CCc1ccccc1)C(=O)N[C@H](C(=O)N[C@@H](CO)C(=O)N[C@@H](CC(=O)O)C(=O)N[C@@H](Cc1ccc(-c2ccccc2)cc1)C(=O)N[C@@H](Cc1ccc(-c2ccccc2)cc1)C(N)=O)[C@@H](C)O [RXL-3019, His-Aib-Glu-Gly-Thr-hPhe-Thr-Ser-Asp-Bip-Bip-NH2] | 110% | 16 nM | –
C[C@@H](O)[C@H](NC(=O)CNC(=O)[C@H](CCC(=O)O)NC(=O)C(C)(C)NC(=O)[C@@H](N)Cc1c[nH]cn1)C(=O)N[C@@H](Cc1ccccc1[N+](=O)[O-])C(=O)N[C@H](C(=O)N[C@@H](CO)C(=O)N[C@@H](CC(=O)O)C(=O)N[C@@H](Cc1ccc(-c2ccccc2)cc1)C(=O)N[C@@H](Cc1ccc(-c2ccccc2)cc1)C(N)=O)[C@@H](C)O [RXL-3014, His-Aib-Glu-Gly-Thr-Phe(2-NO2)-Thr-Ser-Asp-Bip-Bip-NH2] | 104% | 1.1 nM | –
C[C@@H](O)[C@H](NC(=O)CNC(=O)[C@H](CCC(=O)O)NC(=O)C(C)(C)NC(=O)[C@@H](N)Cc1c[nH]cn1)C(=O)N[C@@](C)(Cc1ccccc1F)C(=O)N[C@H](C(=O)N[C@@H](CO)C(=O)N[C@@H](CC(=O)O)C(=O)N[C@@H](Cc1ccc(-c2ccccc2)cc1)C(=O)N[C@@H](Cc1ccc(-c2ccccc2)cc1)C(N)=O)[C@@H](C)O [RXL-101, His-Aib-Glu-Gly-Thr-α-Me-Phe(2-F)-Thr-Ser-Asp-Bip-Bip-NH2] (H-H[Aib]EGT[αMePhe(2-F)]TSD[Bip][Bip]-NH2) | 117% | – | Cα-methylation pEC50 contribution for position 6 (pEC50 of RXL-101 minus pEC50 of RXL-3000): 0.97
C[C@@H](O)[C@H](NC(=O)CNC(=O)[C@H](CCC(=O)O)NC(=O)C(C)(C)NC(=O)[C@@H](N)Cc1c[nH]cn1)C(=O)NC(C)(C)C(=O)N[C@H](C(=O)N[C@@H](CO)C(=O)N[C@@H](CC(=O)O)C(=O)N[C@@H](Cc1ccc(-c2ccccc2)cc1)C(=O)N[C@@H](Cc1ccc(-c2ccccc2)cc1)C(N)=O)[C@@H](C)O [RXL-3028, His-Aib-Glu-Gly-Thr-Aib-Thr-Ser-Asp-Bip-Bip-NH2] (H-H[Aib]EGT[Aib]TSD[Bip][Bip]-NH2) | 76.1% | – | rescue of potency by Aib versus Ala substitution (Aib analog versus Ala analog at the same position): more than 10 fold; decreased potency by Aib substitution: ≥ 100 fold; EC50 [2]: 161 nM; EC50 (Table 4, Aib-scan peptides, 0% HSA, read-out: pEC50 (converted)): 105 nM; dpEC50 (contribution of Cα-methylation) (0% HSA): 0.46
C[C@H](NC(=O)[C@@H](NC(=O)CNC(=O)[C@H](CCC(=O)O)NC(=O)C(C)(C)NC(=O)[C@@H](N)Cc1c[nH]cn1)[C@@H](C)O)C(=O)N[C@H](C(=O)N[C@@H](CO)C(=O)N[C@@H](CC(=O)O)C(=O)N[C@@H](Cc1ccc(-c2ccccc2)cc1)C(=O)N[C@@H](Cc1ccc(-c2ccccc2)cc1)C(N)=O)[C@@H](C)O [RXL-3038, His-Aib-Glu-Gly-Thr-Ala-Thr-Ser-Asp-Bip-Bip-NH2] (H-H[Aib]EGTATSD[Bip][Bip]-NH2) | 37.4% | – | EC50 [3]: > 1000 nM; pEC50 (Table 4, Ala-scan peptides, 0% HSA): 5.55; decreased potency (Aib/Ala comparison) (versus respective parent analog): > 1000 fold
C[C@@H](O)[C@H](NC(=O)CNC(=O)[C@H](CCC(=O)O)NC(=O)C(C)(C)NC(=O)[C@@H](N)Cc1c[nH]cn1)C(=O)N[C@@H](Cc1ccccc1C#N)C(=O)N[C@H](C(=O)N[C@@H](CO)C(=O)N[C@@H](CC(=O)O)C(=O)N[C@@H](Cc1ccc(-c2ccccc2)cc1)C(=O)N[C@@H](Cc1ccc(-c2ccccc2)cc1)C(N)=O)[C@@H](C)O [RXL-3015, His-Aib-Glu-Gly-Thr-Phe(2-CN)-Thr-Ser-Asp-Bip-Bip-NH2] | 101% | 7.7 nM | –
Cc1ccccc1C[C@H](NC(=O)[C@@H](NC(=O)CNC(=O)[C@H](CCC(=O)O)NC(=O)C(C)(C)NC(=O)[C@@H](N)Cc1c[nH]cn1)[C@@H](C)O)C(=O)N[C@H](C(=O)N[C@@H](CO)C(=O)N[C@@H](CC(=O)O)C(=O)N[C@@H](Cc1ccc(-c2ccccc2)cc1)C(=O)N[C@@H](Cc1ccc(-c2ccccc2)cc1)C(N)=O)[C@@H](C)O [RXL-3013, His-Aib-Glu-Gly-Thr-Phe(2-CH3)-Thr-Ser-Asp-Bip-Bip-NH2] | 98.6% | 2.1 nM | –
C[C@@H](O)[C@H](NC(=O)CNC(=O)[C@H](CCC(=O)O)NC(=O)C(C)(C)NC(=O)[C@@H](N)Cc1c[nH]cn1)C(=O)N[C@@](C)(Cc1ccccc1)C(=O)N[C@H](C(=O)N[C@@H](CO)C(=O)N[C@@H](CC(=O)O)C(=O)N[C@@H](Cc1ccc(-c2ccccc2)cc1)C(=O)N[C@@H](Cc1ccc(-c2ccccc2)cc1)C(N)=O)[C@@H](C)O [RXL-3020, His-Aib-Glu-Gly-Thr-α-Me-Phe-Thr-Ser-Asp-Bip-Bip-NH2] (H-H[Aib]EGT[αMeF]TSD[Bip][Bip]-NH2) | 108% | – | –
C[C@H](NC(=O)C(C)(C)NC(=O)[C@@H](N)Cc1c[nH]cn1)C(=O)NCC(=O)N[C@H](C(=O)N[C@@H](Cc1ccccc1F)C(=O)N[C@H](C(=O)N[C@@H](CO)C(=O)N[C@@H](CC(=O)O)C(=O)N[C@@H](Cc1ccc(-c2ccccc2)cc1)C(=O)N[C@@H](Cc1ccc(-c2ccccc2)cc1)C(N)=O)[C@@H](C)O)[C@@H](C)O [RXL-3003, His-Aib-Ala-Gly-Thr-Phe(2-F)-Thr-Ser-Asp-Bip-Bip-NH2] | 108% | – | EC50 [3]: 7.9 nM
C[C@@H](O)[C@H](NC(=O)CNC(=O)[C@H](CCC(=O)O)NC(=O)C(C)(C)NC(=O)[C@@H](N)Cc1c[nH]cn1)C(=O)N[C@@H](Cc1ccccc1)C(=O)N[C@H](C(=O)N[C@@H](CO)C(=O)N[C@@H](CC(=O)O)C(=O)N[C@@H](Cc1ccc(-c2ccccc2)cc1)C(=O)N[C@@H](Cc1ccc(-c2ccccc2)cc1)C(N)=O)[C@@H](C)O [RXL-100, His-Aib-Glu-Gly-Thr-Phe-Thr-Ser-Asp-Bip-Bip-NH2] | 110% | 0.5 nM | EC50 [3]: 0.5 nM; EC50 [2]: 0.5 nM
